Assay results: patent US20070060632A1, “Lofexidine” (TEXCONTOR ETABLISSEMENT, priority 2005, published 2007)
Several values for one entry are separate records, joined by “and”; a condition that tells them apart may be missing. Identical values can stand only once. Counter-ions that a name gives are not always drawn.

Columns and labels:
[1] = tested on: rat model of post-operative pain; assay: Rat model of post-operative pain (hind paw incision), tactile allodynia by Electronic Von Frey; type: in vivo; conditions: for Tactile Pressure Post-treatment, Average per rat: average of 4 points of one rat; for % Inhibition: Δ Treatment/Δ Blank × 100% / Δ Treatment: Tactile Pressure [(Post-Treatment) − (Pre-Treatment)]: group; for % Inh per rat: individual rat; for Tactile Pressure Post-Treatment: single points (4 per rat), 24 hours after surgery
Procedure: Lofexidine at 0.00032 and 0.0032 mg/rat injected intrathecally (ITH) was evaluated for possible analgesic activity in a rat model of post-operative pain which was induced with an incision made on the plantar surface of the hind paw. To measure tactile allodynia, a supertip with a flattened surface connected to Electrovonfrey Aesthethiometer (IITC, USA) was applied slowly and gently onto the plantar surface of the hind paw, where 4 points around the incision were identified. The endpoint is the mean withdrawal threshold values (gm) in response to von Frey filament, serving as a measure of analgesic activity. Percent inhibition was calculated as Δ treatment values (change in threshold pressure caused by treatment) relative to Δ blank values (change in threshold value caused by incision). Lofexidine.HCl was dissolved in 0.9% NaCl and at doses of 0.00032 and 0.0032 mg/rat was administered intrathecally (ITH). The dosing volume was 10 μl/rat. Male Wistar derived rats weighing 270±30 g provided by BioLasco Taiwan (under Charles River Laboratories Technology licensee) were used. Space allocation for animals was 45×23×15 cm for 6 rats. Animals were housed in APEC^R cages. All animals were maintained in a controlled temperature (22-24° C.) and humidity (60%-80%) environment with 12 hours light dark cycles for at least one week in MDS Pharma Services-Taiwan Laboratory prior to use. Free access to standard lab chow (Lab Diet, Rodent Diet, PMI Nutrition International, USA) and tap water was granted. All aspects of this work including housing, experimentation and disposal of animals were performed in general accordance with the Guide for the Care and Use of Laboratory Animals (National Academy Press, Washington, D. C, 1996). Groups of 5 male Wistar rats weighing 270±30 g were used. Prior to surgery, individual animals were acclimatised to the testing environment and baseline responses to Electronic Von Frey Aesthesiometer (2290CE Electrovonfrey®, IITC, USA) with a rigid tip were performed (Pre-Incision). Under pentobarbital (50 mg/kg, 5 ml/kg, i.p.) anesthesia, the left hind paw was aseptically prepared. A 1-cm longitudinal incision was made with a number 11 blade, through the skin and fascia of the plantar aspect of the foot, starting 0.5 cm from the proximal edge of the heel and extending toward the toes. The plantaris muscle was elevated and incised longitudinally, followed by crushing with a mosquito hemostat for 20 seconds. The muscle origin and insertion remained intact After hemostasis with gentle pressure, the skin and fascia were then closed as one layer using 4-0 silk suture. Evaluation for pain was performed at 24 hours postoperatively between 08:00 and 16:00 h. Each animal was monitored at 15, 30, 60 and 120 minutes after intrathecal administration of lofexidine.HCl. The rats were placed under inverted plexiglas cages on a wire mesh rack and a brief observation of general behavior post-injection was made. The rigid tip part of the Electronic Von Frey Aesthesiometer was applied perpendicularly from underneath the mesh floor to the four points around the wound surface of the animal with slow upward force against the paw. A positive response to tactile pressure was recorded if the paw was sharply withdrawn; ambulation was considered an ambiguous response, and in such cases, the stimulus was reapplied. Mean values from 4 points for each rat and from 5 rats in each group were calculated. Percent inhibition due to treatment relative to pre-treatment pain response was calculated according to the formula: Tactile Pressure [(Post-Treatment)−(Pre-Treatment)]/[(Pre-Incision)−(Pre-Treatment)]×100%. Inhibition by 50% or more (≧50%) is considered significant analgesic effect. Unpaired Student's t test is applied for comparison of the % inhibition values between test substance-and vehicle-treated groups. Significance is considered at P<0.05 level

[2] = tested on: chronic pelvic pain; conditions: given orally, dosages of up to 1200 μg per day; cited from earlier work
[3] = systemically (orally or by intravenous injection), especially at high doses (>600 μg per day); cited from earlier work
[4] = tested on: nerve ligation-induced chronic pain model in rats; assay: Nerve ligation-induced chronic (neuropathic) pain model in rats, mechanical allodynia by Electronic Von Frey; type: in vivo, rat; conditions: for Tactile Pressure Post-Treatment, Average / Tactile Pressure Δ Treatment, Average: average of 5 rats; for Tactile Pressure Post-Treatment / Tactile Pressure Δ Treatment: individual rat
Procedure: Lofexidine was evaluated for possible analgesic activity in neuropathic pain using a nerve ligation-induced chronic pain model in rats. Lofexidine HCl was administered intrathecally (ITH) at 3.2 and 10 μg/animal and analgesia was measured at 15, 30, 60 and 120 minutes post-dosing using an Electronic Von Frey Aesthesiometer (IITC, USA) with a #12 supertip. A 50% or greater (≧50%) inhibition relative to blank indicates possible analgesic activity. Lofexidine HCl at doses of 3.2 and 10 μg/animal were administered intrathecally. Sterile Saline (obtained from Sintong Biotech Company, Taiwan) was used as vehicle and dosing volume was 10 μl/animal. Male Wistar rats weighing 160 to 200 g were used. Under pentobarbital (50 mg/kg, 5 ml/kg, i.p.) anesthesia, the sciatic nerve was exposed at mid-thigh level. Three ligatures (4-0 silk suture), about 1 mm apart, were loosely tied around the nerve. The animals were then housed individually in cages with soft bedding for 7 days before testing for mechanical allodynia. On the test day, rats were placed under inverted plexiglas cages on a wire mesh rack and allowed to acclimatise for 20 to 30 minutes. Allodynia was evaluated by responsiveness to a #12 Supertip® (IITC, USA) applied beneath the mesh floor perpendicular to the central plantar surface of the left hind paw. The tip was gradually applied with sufficient force to cause slight buckling of the filament against the paw. A positive response to the applied tactile pressure, noted by sharp withdrawal of the paw, was recorded automatically by an Electronic Von Frey Aesthesiometer (2290CE Electrovonfrey®, IITC, USA). The endpoint is the withdrawal threshold (gm) to von Frey filament, serving as a measure of analgesic activity. Rats were pre-selected (for presence of allodynia) for experimentation only if the withdrawal threshold 7 days after nerve ligation (pre-treatment) was reduced by 10 grams of force relative to the response of the individual paw before nerve ligation (pre-ligation). Test substance or vehicle was administered intrathecally (3.2 μg and 10 μg/animal) to groups of 5 animals and the level of allodynia was again determined (at 15, 30, 60 and 120 minutes post-treatment). Allodynia is calculated as follows: % Inhibition=ΔTreatment/ΔBlank×100%; where Δ Treatment is Tactile Pressure [(Post-Treatment)−(Pre-Treatment)] and Δ Blank is Tactile Pressure [(Pre-Ligation)−(Pre-Treatment)]. A 50 percent or greater (≧50%) inhibition relative to blank indicates possible analgesic activity.

CC(Oc1c(Cl)cccc1Cl)C1=NCCN1 (centres unmarked) [Lofexidine HCl]
Tactile Pressure Post-treatment, Average per rat ([1]; 0.00032 mg/rat ITH, 15 min.): 18.0 g
% Inhibition: Δ Treatment/Δ Blank × 100% ([1]; 0.00032 mg/rat ITH, 15 min.): 2.6%
Δ Treatment: Tactile Pressure [(Post-Treatment) − (Pre-Treatment)] ([1]; 0.00032 mg/rat ITH, 15 min.): 0.8 g
% Inh per rat ([1]; 0.00032 mg/rat ITH, 15 min.): −7.4% and 2.5% and −5.6% and 8.0%
% Inhibition: Δ Treatment/Δ Blank × 100% ([1]; 0.00032 mg/rat ITH, 30 min.): 7.6%
Δ Treatment: Tactile Pressure [(Post-Treatment) − (Pre-Treatment)] ([1]; 0.00032 mg/rat ITH, 30 min.): 2.3 g
% Inh per rat ([1]; 0.00032 mg/rat ITH, 30 min.): −3.2% and 4.1%
Tactile Pressure Post-Treatment ([1]; 0.00032 mg/rat ITH, 30 min.): 26.0 g and 20.0 g
Tactile Pressure Post-treatment, Average per rat ([1]; 0.00032 mg/rat ITH, 60 min.): 22.0 g
% Inhibition: Δ Treatment/Δ Blank × 100% ([1]; 0.00032 mg/rat ITH, 60 min.): 4.3%
Δ Treatment: Tactile Pressure [(Post-Treatment) − (Pre-Treatment)] ([1]; 0.00032 mg/rat ITH, 60 min.): 1.3 g
% Inh per rat ([1]; 0.00032 mg/rat ITH, 60 min.): −0.7% and 3.0% and 0.8% and 7.4%
Tactile Pressure Post-Treatment ([1]; 0.00032 mg/rat ITH, 60 min.): 22.0 g
% Inhibition: Δ Treatment/Δ Blank × 100% ([1]; 0.00032 mg/rat ITH, 120 min.): 0.3%
Δ Treatment: Tactile Pressure [(Post-Treatment) − (Pre-Treatment)] ([1]; 0.00032 mg/rat ITH, 120 min.): 0.1 g
% Inh per rat ([1]; 0.00032 mg/rat ITH, 120 min.): −2.5% and −7.4% and 2.5% and 4.1% and 4.7%
Tactile Pressure Post-Treatment ([1]; 0.00032 mg/rat ITH, 120 min.): 21.0 g (2×) and 22.0 g and 18.0 g
Tactile Pressure Post-treatment, Average per rat ([1]; 0.0032 mg/rat ITH, 15 min.): 46.0 g
Tactile Pressure Post-Treatment ([1]; 0.0032 mg/rat ITH, 15 min.): 43.0 g and 60.0 g
% Inh per rat ([1]; 0.0032 mg/rat ITH, 30 min.): 47.0%
Tactile Pressure Post-Treatment ([1]; 0.0032 mg/rat ITH, 30 min.): 44.0 g
Δ Treatment: Tactile Pressure [(Post-Treatment) − (Pre-Treatment)] ([1]; 0.0032 mg/rat ITH, 60 min.): 8.9 g
% Inh per rat ([1]; 0.0032 mg/rat ITH, 60 min.): −3.5% and 0.9%
Tactile Pressure Post-Treatment ([1]; 0.0032 mg/rat ITH, 60 min.): 29.0 g
Tactile Pressure Post-treatment, Average per rat ([1]; 0.0032 mg/rat ITH, 120 min.): 22.0 g
% Inhibition: Δ Treatment/Δ Blank × 100% ([1]; 0.0032 mg/rat ITH, 120 min.): 5.5%
Δ Treatment: Tactile Pressure [(Post-Treatment) − (Pre-Treatment)] ([1]; 0.0032 mg/rat ITH, 120 min.): 1.8 g
% Inh per rat ([1]; 0.0032 mg/rat ITH, 120 min.): 1.2% and 5.8% and −2.5% and −8.2%
effectiveness in treatment of chronic pelvic pain [2]: not effective
common symptoms associated with systemic use [3]: drowsiness, sedation and blood pressure and heart rate increases
Tactile Pressure Post-Treatment, Average ([4]; 3.2 μg/animal ITH, 15 Minutes): 12.5 g
Tactile Pressure Δ Treatment, Average ([4]; 3.2 μg/animal ITH, 15 Minutes): 1.3 g
Tactile Pressure Post-Treatment ([4]; 3.2 μg/animal ITH, 15 Minutes): 8.9 g and 5.8 g
Tactile Pressure Δ Treatment ([4]; 3.2 μg/animal ITH, 15 Minutes): -1.8 g and -5.2 g and 8.5 g and 6.3 g and -1.1 g
Tactile Pressure Δ Treatment, Average ([4]; 3.2 μg/animal ITH, 30 Minutes): -1.1 g
Tactile Pressure Post-Treatment ([4]; 3.2 μg/animal ITH, 30 Minutes): 7.4 g and 8.5 g and 10.0 g
Tactile Pressure Δ Treatment ([4]; 3.2 μg/animal ITH, 30 Minutes): -0.5 g and -3.8 g and -0.6 g and 1.4 g and -2.0 g
Tactile Pressure Post-Treatment, Average ([4]; 3.2 μg/animal ITH, 60 Minutes): 9.3 g
Tactile Pressure Δ Treatment, Average ([4]; 3.2 μg/animal ITH, 60 Minutes): -1.8 g
Tactile Pressure Post-Treatment ([4]; 3.2 μg/animal ITH, 60 Minutes): 8.7 g and 7.5 g and 6.5 g
Tactile Pressure Δ Treatment ([4]; 3.2 μg/animal ITH, 60 Minutes): -2.0 g and -3.7 g and -2.1 g and 4.2 g and -5.5 g
Tactile Pressure Post-Treatment, Average ([4]; 3.2 μg/animal ITH, 120 Minutes): 9.2 g
Tactile Pressure Δ Treatment, Average ([4]; 3.2 μg/animal ITH, 120 Minutes): -2.0 g
Tactile Pressure Post-Treatment ([4]; 3.2 μg/animal ITH, 120 Minutes): 8.6 g and 6.1 g and 7.9 g
Tactile Pressure Δ Treatment ([4]; 3.2 μg/animal ITH, 120 Minutes): -2.1 g and -5.1 g and -2.4 g and 0.8 g and -1.2 g
Tactile Pressure Δ Treatment, Average ([4]; 10 μg/animal ITH, 15 Minutes): 13.0 g
Tactile Pressure Post-Treatment ([4]; 10 μg/animal ITH, 15 Minutes): >36.8 g
Tactile Pressure Δ Treatment ([4]; 10 μg/animal ITH, 15 Minutes): 1.5 g and 11.0 g
Tactile Pressure Post-Treatment ([4]; 10 μg/animal ITH, 30 Minutes): 7.0 g and >31.5 g and >35.5 g
Tactile Pressure Δ Treatment ([4]; 10 μg/animal ITH, 30 Minutes): -3.9 g and 4.3 g
Tactile Pressure Post-Treatment ([4]; 10 μg/animal ITH, 60 Minutes): 8.9 g
Tactile Pressure Δ Treatment ([4]; 10 μg/animal ITH, 60 Minutes): 8.4 g and 4.2 g and -2.4 g
Tactile Pressure Post-Treatment, Average ([4]; 10 μg/animal ITH, 120 Minutes): 11.0 g
Tactile Pressure Δ Treatment, Average ([4]; 10 μg/animal ITH, 120 Minutes): 0.6 g
Tactile Pressure Post-Treatment ([4]; 10 μg/animal ITH, 120 Minutes): 6.4 g
Tactile Pressure Δ Treatment ([4]; 10 μg/animal ITH, 120 Minutes): 1.4 g and -0.1 g and 5.2 g and 1.3 g and -4.9 g
time of peak analgesic activity post-dosing ([4]; 10 μg/animal intrathecal): 30 min
analgesic activity at 120 minutes post-dosing ([4]; 10 μg/animal intrathecal, 120 minutes post-dosing): no longer evident

CC(Oc1c(Cl)cccc1Cl)C1=NCCN1 (centres unmarked) [Lofexidine]
analgesic effect against post-operative pain ([1]; 0.00032 mg/rat ITH): slight analgesic effect
analgesic effect against post-operative pain ([1]; 0.0032 mg/rat intrathecal, 15 and 30 minute time points, compared with Δ blank values): demonstrated analgesic effect
analgesic activity, neuropathic pain ([4]; 3.2 μg/animal intrathecal): low levels of analgesic activity
analgesic activity, neuropathic pain ([4]; 10 μg/animal intrathecal, 30 minutes post-injection): significant analgesic activity
